Measured values as given in the NIST ThermoML archive (doi:10.1021/je101256z).
“And” between values parts separate entries of the source, which are not always exact repeats. Equal values may be shown once.

Conditions: Liquid, Vibrating wire viscometry

CC(C)CCCCCCCOC(=O)c1ccccc1C(=O)OCCCCCCCC(C)C
Conditions | viscosity
274.07 K, 100 kPa | 606.7 mPa·s
274.35 K, 100 kPa | 588.6 mPa·s
282.95 K, 100 kPa | 270.2 mPa·s
283.03 K, 100 kPa | 265.9 mPa·s
298.15 K, 200 kPa | 87.63 mPa·s [middle of 8 runs]
298.15 K, 10000 kPa | 112.08 mPa·s and 112.26 mPa·s
298.15 K, 20000 kPa | 143.67 mPa·s and 143.41 mPa·s and 143.42 mPa·s
298.15 K, 40000 kPa | 231.39 mPa·s [middle of 6 runs]
298.25 K, 100 kPa | 87.67 mPa·s
305.15 K, 200 kPa | 57.12 mPa·s [middle of 5 runs]
305.26 K, 100 kPa | 57.43 mPa·s
313.15 K, 200 kPa | 37.1 mPa·s [middle of 5 runs]
313.15 K, 10100 kPa | 46.34 mPa·s and 46.33 mPa·s and 46.23 mPa·s
313.15 K, 20000 kPa | 57.28 mPa·s and 57.35 mPa·s and 57.32 mPa·s
313.15 K, 40000 kPa | 87.15 mPa·s and 87.13 mPa·s and 87.03 mPa·s
313.15 K, 59900 kPa | 130.49 mPa·s and 130.29 mPa·s
313.15 K, 60000 kPa | 130.33 mPa·s
313.15 K, 80000 kPa | 194.08 mPa·s and 194.41 mPa·s and 195.2 mPa·s
313.27 K, 100 kPa | 37.41 mPa·s
327.83 K, 100 kPa | 19.32 mPa·s
343.15 K, 200 kPa | 10.99 mPa·s [middle of 5 runs]
343.15 K, 10100 kPa | 13.33 mPa·s and 13.35 mPa·s
343.15 K, 20100 kPa | 15.85 mPa·s and 15.86 mPa·s
343.15 K, 40000 kPa | 22.04 mPa·s and 22.05 mPa·s
343.15 K, 80100 kPa | 41.22 mPa·s and 41.24 mPa·s
343.15 K, 137100 kPa | 95.56 mPa·s and 95.61 mPa·s
343.24 K, 100 kPa | 11.1 mPa·s
343.33 K, 100 kPa | 11.09 mPa·s
343.53 K, 100 kPa | 11.15 mPa·s
368.15 K, 300 kPa | 5.65 mPa·s
368.21 K, 100 kPa | 5.627 mPa·s
368.54 K, 100 kPa | 5.577 mPa·s
373.15 K, 300 kPa | 5.04 mPa·s and 5.05 mPa·s and 4.92 mPa·s
373.15 K, 20100 kPa | 6.876 mPa·s and 6.866 mPa·s
373.15 K, 40000 kPa | 9.055 mPa·s and 9.075 mPa·s and 9.085 mPa·s
373.15 K, 80100 kPa | 15.22 mPa·s and 15.23 mPa·s
373.15 K, 137200 kPa | 30.11 mPa·s and 30.12 mPa·s and 30.15 mPa·s

Cc1cccc2ccccc12 [1-methylnaphthalene]
298.15 K
Conditions | viscosity
200 kPa | 2.9 mPa·s and 2.89 mPa·s
1000 kPa | 2.94 mPa·s and 2.93 mPa·s and 2.92 mPa·s
10000 kPa | 3.24 mPa·s
39900 kPa | 4.4 mPa·s and 4.41 mPa·s
40000 kPa | 4.42 mPa·s
79900 kPa | 6.65 mPa·s and 6.67 mPa·s
80000 kPa | 6.68 mPa·s and 6.65 mPa·s
120100 kPa | 10.17 mPa·s and 10.12 mPa·s
